The source of these data is patent publication EP0540143B1, “Compounds and methods for inhibition of HIV and related viruses” (priority 1991, dated 1993).

Molecules are shown by their SMILES.

One data set relates to HIV-1. Nature of the data set: combination with AZT against HIV-1 in CEM cells, technique of Prichard and Shipman. The data set is classed as cell-based. Particulars: combination of AZT and the compound. The protocol:
The combination was evaluated against HIV-1 in CEM cells using the technique of Prichard and Shipman (Antiviral Research, 14, 181-206 (1990)).

A short description of data set [1]: titration pKa (66% DMF/H2O). Particulars: pKa, 66% DMF.
A short description of another data set: physchem. The conditions noted are these: 66% dmf/h2o.

With `Cc1cn([C@H]2C[C@H](N=[N+]=[N-])[C@@H](CO)O2)c(=O)[nH]c1=O` [AZT, reference compound], the “concentration at the peak of synergy” value with HIV-1 was found to be 0.005 µg/mL. `Fc1cccc(F)c1CCNC(=S)Nc1ccc(Cl)nn1` [Example 337, N-[2-(2,6-difluorophenyl)ethyl]-N'-[3-(6-chloro)pyridazinyl] thiourea]: in data set [1], the pKa (as a rule, the negative logarithm of the acid dissociation constant) stood at 12.7.

In the case of `NCCc1ncccc1F` [Example 417, 2-aminoethyl-3-fluoropyridine], the pKa in the data set “physchem” worked out at 9.56. In the case of `S=C(NCCc1ccccc1)Nc1nccs1` [drawing 35], in the data set with HIV-1, the “concentration at the peak of synergy” value is 0.5 µg/mL and the “effect of the combination” value was “synergistic effect”.
